The subject of data set [1] is LcL 20S proteasomes. Nature of the data set: 3 µg LcL 20S proteasomes in 100 µl buffer; gp10040-52 and its heavy analogue digested together. Conditions: human, up to 36 hours.
The test system of data set [2] is proteasome.
The subject of data set [3] is T2 20S proteasomes (standard proteasome). Nature of the data set: 20S proteasomes purified from T2 cells in Hepes buffer. Conditions: human, 37°C, up to 48 hours.
Data set [4] deals with T2.27 20S proteasomes (immunoproteasomes). Put plainly: 20S proteasomes purified from T2.27 cells in Hepes buffer. Conditions: human T2 cells transfected with murine LMP2 and LMP7, 37°C, up to 48 hours.
Data set [5] concerns 20S proteasomes of T2 cells (standard proteasome). Put plainly: T2 20S proteasomes (standard proteasome) in Hepes buffer. Conditions: human, 37°C, up to 48 hours.
Data set [6] has as its system 20S proteasomes of T2.27 cells (immunoproteasomes). Nature of the data set: T2.27 20S proteasomes (immunoproteasomes) in Hepes buffer. Particulars: human T2 cells transfected with murine LMP2 and LMP7 subunits, 37°C, up to 48 hours.
Data set [7] has as its system 20S proteasomes of Lymphoblastoid cell Lines (LcL). Nature of the data set: LcL 20S proteasomes in Hepes buffer (Hepes 20 mM, KCI 1 mM, MgCl 0.5 mM, DTT 1 mM, NaN3 1 mM, pH 7.3). Conditions: human, 37°C, up to 48 hours.

Entries after “also recorded” stand apart in the source; their conditions may differ.

With RTK^+6AWNRQL^+1YPEW, the fragment found entry in data set [1] was “gp10040-42/47-52-δ; also recorded: gp10047-52/40-42-δ”.
With RTKAWNRQLYPEW, the fragment found entry in data set [2] was “gp10040-42/47-52 [RTK][QLYPEW]”; in data set [3], “gp10047-52/40-42 [QLYPEW][RTK]”; in data set [4], “gp10040-42/47-52 [RTK][QLYPEW]; also recorded: gp10047-52/40-42 [QLYPEW][RTK]”; in data set [5] it was “[RTK][QLYPEW]; also recorded: [QLYPEW][RTK]”; in data set [6], “[RTK][QLYPEW]; also recorded: [QLYPEW][RTK]”; in data set [1], “gp10040-042/47-52-α; also recorded: gp10047-52/40-42-α”. In addition, the fragment found entry in data set [7] was “gp10040-42/47-52 [RTK][QLYPEW]; also recorded: gp10047-52/40-42 [QLYPEW][RTK]”.
VSRQLRTKAWNRQLYPEWTEAQR: the fragment found result in data set [5] and in data set [6] was “[VSRQL][VSRQL] (gp10035-39/35-39); also recorded: [QLYPEWTEA][VSRQL] (gp10047-55/35-39)” in each case.

These data come from patent publication EP2362225 (dated 2011).
